The source of these data is patent US20230257758A1, “PLANT METABOLITE-MEDIATED INDUCTION OF BIOFILM FORMATION IN SOIL BACTERIA TO INCREASE BIOLOGICAL NITROGEN FIXATION AND PLANT NITROGEN ASSIMILATION” (The Regents of the University of California, priority 2020, published 2023).

SMILES strings stand for the structures.

Assay [1] has as its system Gluconacetobacter diazotrophicus. Kind of assay: Microtiter-plate biofilm formation assay (crystal violet staining) with rice root exudates. Format: cell-based. Conditions: for Biofilm production (natural flavonoids, FIG. 7): exposed for 3 days to Oryza sativa root exudates supplemented with […] of the indicated compounds; for Biofilm formation, comparison of flavones (FIG. 11): 3 days with Oryza sativa root exudates supplemented with indicated concentrations; for Biofilm formation in chemical screening (normalized to DMSO control): wild-type rice (Kitaake) root exudate 198 μL + 2 μL of 10 mM compound, 3 days, crystal violet staining. The procedure:
FIG. 3. […] Biofilm formation of Glucanoacetobacter diazotrophicus was assessed incubated with wild-type rice (Oryza sativa Kitaake) root exudates supplemented with 2 μl of each of 500 flavonoid and derivated compounds of a chemical library (FL-500, TimTec) and 700 compounds (natural and synthetic) (NPDepo library). Chemical screening was performed in a 96-well plate with each well containing: 198 μL of the Kitaake exudate and 2 μL of the 10 mM compound from the chemical libraries. An equal volume (2 μL) of DMSO was added to each well and served as the negative control. Gluconacetobacter diazotrophicus was added to the final OD600=0.01 to each well and incubated in a shaker at 150 rpm, 28° C. for 3 days before biofilm quantification by crystal violet staining. The value of each well in biofilm quantification was normalized to that of the DMSO control in each plate (DMSO=1). The heatmap was generated by the mean value of 3 biological replicates for each compound.
FIG. 7. Effect of natural flavonoids on biofilm formation in Glucanoacetobacter diazotrophicus. Induction of biofilm production in Gluconacetobacter diazotrophicus exposed to Oryza sativa root exudates supplemented with […] of the indicated compounds. Controls are exudates without compound and exudates with DMSO.
FIG. 11. Effects of Naringenin, Apigenin, Apigenin-7-Glucoside, and Luteolin on biofilm formation on Gluconacetobacter diazotrophicus. Values are the Mean±SD (n=6).
Any of a number of assays can be used to assess plants generated using the present methods, as well as to assess candidate plant molecules (e.g., other flavones) for their ability to upregulate biofilm production and assimilation of N2-fixing bacteria. For example, to confirm that the plants are exuding increased levels of the one or more flavones, root exudates from the plants can be isolated and the quantities and identities of the flavones determined, e.g., using mass spectrometry. In addition, the exudates (or other candidate biofilm-inducing molecules) can be incubated with N2-fixing bacteria, e.g., Glucanoacetobacter diazotrophicus, and the biofilm produced by the bacteria assessed. The biofilm can be quantified, e.g., by incubating the exudate (or candidate molecule or molecules) and bacteria in the wells of a microtiter plate, removing the cultures from the plate, washing the wells, adding a solution of crystal violet, rinsing and drying the plate, and then adding ethanol and measuring absorbance at, e.g., 540 nm. See, e.g. Example 1 and www.jove.com/video/2437/microtiter-dish-biofilm-formation-assay, the entire disclosure of which is herein incorporated by reference.
To assess the effect(s) of different chemicals on biofilm formation in N2-fixing bacteria, we used a published protocol (www.jove.com/video/2437/microtiter-dish-biofilm-formation-assay). Basically, bacteria were grown in a 96-well plate in a rich-nutrient medium at 28° C. The compound to be tested was added and the culture was grown overnight. Plant exudates and 2 μl of the compound were added to the well and the bacteria grown for 3 days under shaking (200 rpm). After 3 days, the planktonic bacterial cultures were discarded and the wells were thoroughly washed with water. A solution of 1% of crystal violet was added to each well of the plate and the plate shaken for 10-15 min at 200 rpm. The plates are rinsed 3-4 times with water (by submerging the plants in a tub of water), shaken vigorously and blotted on a stack of paper towels (to eliminate excess of cells and dye), the microliter plate was placed upside down and air dried. To quantify the amount of biofilm that adhered to the well walls, 200 μl of ethanol were added to each well, the plates shacked at 200 rpm, at 28° C. for 10-15 min. The absorbance of the solution was measured at 540 nm, using ethanol as a blank (FIG. 1). […]

The subject of a further assay is Glucanoacetobacter. Kind of assay: Biofilm formation in suspension of double-labelled (mCherry, gumDpro::GFP) Glucanoacetobacter. It counts as cell-based, Glucanoacetobacter diazotrophicus. Conditions: addition of compound to a suspension of Glucanoacetobacter (FIGS. 5A, 5B). From the text:
(§1) FIGS. 5A-5C. Effects of the addition of luteolin or apigenin to biofilm formation in Glucanoacetobacter diazotrophicus. FIG. 5A: Effects of the addition of luteolin to biofilm formation in a Glucanoacetobacter diazotrophicus suspension.
The activity of the exudate or of candidate molecules can also be assessed in vivo, e.g., by using transgenic N2-fixing bacteria such as Glucanoacetobacter diazotrophicus that constitutively express a label such as mCherry. The bacteria can also express labeled components of biofilms, e.g., in bacteria transformed with gumDpro::GFP. The double labeling in such bacteria allows the visualization of the bacteria and, independently, the development of biofilm in the presence or absence of the exudate or candidate molecule.
Our results indicated clustering among common moieties, particularly among heterooctacyclic compounds (e.g., Staurosporine) and […] (e.g., luteolin, apigenin) and anthraquinones (e.g. 2H03 and 4G03—Papaverine). (FIG. 4). […] Therefore we assessed the effects of luteolin and apigenin in vivo. First we assessed the formation of chemical-induced formation of biofilm in bacterial cultures. For this, we generated transgenic Glucanoacetobacter constitutively expressing mCherry (transformed with pSEVAGeng-Luc-mCherry) in order to visualize mCherry fluorescent bacteria. Then we transformed the mCherry expressing bacteria with gumDpro::GFP. GumD encodes for components of the bacterial Exopolysacharides (EPS)] in order to visualize GFP-labelled biofilms. Thus the double labelling allowed as to follow the development of biofilm while visualizing the bacteria.

Assay [2] relates to Glucanoacetobacter diazotrophicus. Kind of assay: Acetylene reduction assay (ARA) for bacterial N2 fixation. Format: cell-based. Conditions: Kitaake rice root exudates and 100 μM, 3 days at 28° C., then acetylene 4 days. As for the experimental part:
as §1
FIGS. 12A-12C. Effects of flavones (Naringenin, Apigenin, Apigenin-7-Glucoside) on bacterium N2-fixation. FIG. 12A: Activity was assessed by measuring the conversion of acetylene to ethylene by Gas Chromatography. FIG. 12B: Assimilation of Nitrogen by Kitaake rice plants, incubated with Glucanoacetobacter in the absence (DMSO) or presence of Apigenin. Nitrogen assimilation was assessed by feeding ^15N2 and measuring assimilated inorganic ^15N in leaf tissues after 2 weeks, using Mass Spectroscopy. […]
The N2-fixing activity of the bacteria can be assessed, e.g., using an acetylene reduction assay (ARA), in which bacteria are cultured in the presence of acetylene gas, and the conversion of acetylene to ethylene measured by, e.g., gas chromatography.
To assess the effects of the flavones on bacteria N2 fixation, we used the acetylene reduction assay (ARA), where gas acetylene is added, and the resulting ethylene is measured by Gas Chromatography. […] Ten % of the air in the tube was replaced by acetylene, the cells incubated for 4 days and ethylene was measured by gas chromatography (FIG. 12A). […]

The subject of assay [3] is Kitaake rice roots incubated with Glucanoacetobacter. Briefly: Microscopy of adherence of fluorescent bacteria to rice roots. Format: in vivo, Oryza sativa Kitaake. Conditions: versus DMSO. The procedure: (§2) FIGS. 12A-12C. Effects of flavones (Naringenin, Apigenin, Apigenin-7-Glucoside) on bacterium N2-fixation. FIG. 12A: Activity was assessed by measuring the conversion of acetylene to ethylene by Gas Chromatography. FIG. 12B: Assimilation of Nitrogen by Kitaake rice plants, incubated with Glucanoacetobacter in the absence (DMSO) or presence of Apigenin. Nitrogen assimilation was assessed by feeding ^15N2 and measuring assimilated inorganic ^15N in leaf tissues after 2 weeks, using Mass Spectroscopy. FIG. 12C: Kitaake rice roots incubated with Glucanoacetobacter in the absence (DMSO) or presence of Apigenin.
(§3) The genetically modified plants themselves can also be assessed in any of a number of ways. For example, plants can be grown in the presence of fluorescently labeled N2-fixing bacteria, and the adherence of the bacteria to the plant root hairs, either attached to the root surface or present inside the plant tissues, can be determined. The plants can also be assessed by determining the number of tillers and/or the seed yield. In some embodiments, the assimilation of N2 fixed by bacteria in the soil is assessed by, e.g., growing the plants in the presence of ^15N2 gas, and then measuring the level of ^15N assimilated in the plant leaves, e.g., using Mass spectroscopy.
No bacteria was seen on the control treatments. […]

The subject of assay [4] is Kitaake rice plants, incubated with Glucanoacetobacter. Kind of assay: Assimilation of 15N2-derived nitrogen by rice plants incubated with bacteria. It counts as in vivo, Oryza sativa Kitaake. Conditions: rice seedlings in soil with bacteria, 15N2 gas added; versus DMSO control. The procedure: as §2
as §3, with “spectroscopy. […]” for “spectroscopy.”

The test system of another assay is Azoarcus communis. Briefly: Luteolin-induced biofilm production in N2-fixing bacteria. Format: cell-based. As for the experimental part:
(§4) FIG. 8. Induction of biofilm production in facultative N2-fixing bacteria.
(§5) FIGS. 9A-9C. Effect of luteolin on biofilm production in Azoarcus sp. CIB (FIG. 9A), Azoarcus communis (FIG. 9B), and Burkholderia vietnamensis (FIG. 9C).
(§6) The effects of luteolin on the induction of biofilm production was tested in a number of N2-fixing bacteria (FIG. 8). While Burkholderia vietnamensis and Azoarcus sp. […] Also the response of the bacteria to luteolin was not uniform; Azoarcus sp.

Assay [5] concerns Burkholderia vietnamensis. The description is as above. It counts as cell-based. As for the experimental part:
as §4, §5, §6

In another assay the test system is Azoarcus sp. CIB. The description is as above. It counts as cell-based. The procedure: as §4, §5, §6
In another assay the test system is Azospirillum sp. 8510. The description is as above. It counts as cell-based. As for the experimental part: as §4, §6
Assay [6] has as its system Herbaspirillum seropedicae. The assay is described as above. Format: cell-based. The procedure: as §4, §6

For `O=C1C[C@@H](c2ccc(O)c(O)c2)Oc2cc(O)cc(O)c21` [Eriodictyol], the “Biofilm production (natural flavonoids, FIG. 7)” value in assay [1] is listed as “Only luteolin induced a significant increase”.

Take `O=c1c(O)c(-c2cc(O)c(O)c(O)c2)oc2cc(O)cc(O)c12` [Myricetin]: the “Biofilm production (natural flavonoids, FIG. 7)” value in assay [1] was “Only luteolin induced a significant increase”.

`O=C1C[C@@H](c2ccc(O)cc2)Oc2cc(O)cc(O)c21` [Naringenin]: the “Biofilm production (natural flavonoids, FIG. 7)” value in assay [1] was “Only luteolin induced a significant increase”.

For the compound `O=c1c(O)c(-c2ccc(O)c(O)c2)oc2cc(O)cc(O)c12` [Quercetin], the “Biofilm production (natural flavonoids, FIG. 7)” value in assay [1] was “Only luteolin induced a significant increase”.

On to `O=c1cc(-c2ccc(O)cc2)oc2cc(O[C@@H]3O[C@H](CO)[C@@H](O)[C@H](O)[C@H]3O)cc(O)c12` [apigenin-7-O-glucoside], for which the “Induction of biofilm formation in bacterial suspension” value (“Induction of biofilm formation” for short) in the assay on Glucanoacetobacter was “showed the induction of biofilm formation”. Moreover, the “Biofilm formation, comparison of flavones (FIG. 11)” value (shortened to “Biofilm formation, comparison”) in assay [1] was “strongest biofilm induction”. The “Nitrogen fixation (conversion of acetylene to ethylene, gas chromatography)” value in assay [2] is listed as “promote nitrogen fixation”.

With `O=c1cc(-c2ccc(O)cc2)oc2cc(O)cc(O)c12` [apigenin], the “Induction of biofilm formation” value in the assay on Glucanoacetobacter is “showed the induction of biofilm formation”. Moreover, the “Adherence of bacteria to the root surface and inside the root tissue” value in [3] was “Adherence of bacteria to the root surface and inside the root tissue can be seen”. In assay [1], the “Biofilm formation, comparison” value is reported as “strongest biofilm induction” and the “Biofilm formation in chemical screening (normalized to DMSO control)” value is “biofilm inducers”. In addition, the “Biofilm formation, comparison” value in assay [1] (listed as Apigenin) is “induced a larger biofilm production than Luteolin”. In addition, the “Nitrogen fixation (conversion of acetylene to ethylene, gas chromatography)” value in assay [2] is “promote nitrogen fixation”. Besides, in [4], the “15N assimilated in the leaves” value is “significant increase in ^15N into Nitrogen compounds”.

Regarding `O=c1cc(-c2ccc(O)c(O)c2)oc2cc(O)cc(O)c12` [luteolin], in the assay on Glucanoacetobacter, the “Induction of biofilm formation” value is “induction of biofilm formation by increasing amounts of luteolin”. In addition, the Luteolin-induced biofilm production entry (in the assay on Azoarcus communis; in the assay on Azospirillum sp. 8510; in assay [6]) was “did not show an enhanced biofilm production” in each case. In addition, the Luteolin-induced biofilm synthesis result (in [5]; with Azoarcus sp. CIB (Azoarcus sp. CIB)) was “displayed a luteolin-induced biofilm synthesis” in each case. The “Response to luteolin relative to Burkholderia vietnamensis” value with Azoarcus sp. CIB (Azoarcus sp. CIB versus Burkholderia vietnamensis) is “lesser response to luteolin than Burkholderia vietnamensis”. Further, the “Biofilm production (natural flavonoids, FIG. 7)” value in assay [1] is “induced a significant increase in biofilm production”. The “Biofilm formation in chemical screening (normalized to DMSO control)” value in assay [1] is given as “biofilm inducers”.
